Test results published in patent publication US20250186405A1, “Compound For Use In Treating Narcolepsy” (Alkermes, Inc., priority 2023, published 2025).
Like-named read-outs stand apart in the source and are kept apart here.

Tests used:
[1] = test system: subjects with narcolepsy type-2 (NT2); test: Part 5 NT2: Karolinska Sleepiness Scale (KSS); assay type: in vivo, human; conditions: for Change From Day −1 in Average Karolinska Sleepiness Scale, LSM difference vs placebo: NT2, N = 9; for Change From Day −1 in Average Karolinska Sleepiness Scale, LSM: NT2, N = 9, average of 1, 2, 4, 6, 8 h
Experimental: At points within the study, subjects were asked to rate their sleepiness using the KSS with regard to the level of sleepiness they experienced over the past 5 minutes.
The KSS is a validated, self-reported outcome measure of subjective sleepiness. The KSS was developed as a one-dimensional measure of sleepiness and has been validated against assessments like EEG and electrooculography activity (Akerstedt and Gillberg 1990). The KSS is comprised of a single question that asks the subject to rate their sleepiness in the immediately preceding 5 minutes on a 9-point scale where 1=extremely alert and 9=very sleepy, great effort to keep awake, fighting sleep. The KSS takes approximately 10 to 15 seconds to complete. Thus, the KSS is well suited for repeated measurement at short intervals as it assesses situational sleepiness within a short timeframe.
The PD parameters in the POC evaluation (e.g., changes from baseline in sleep latency on MWT, number of errors on SART and level of sleepiness on KSS at matched time points) were summarized using descriptive statistics for each time point by dose level.

[2] = Part 5 NT2: plasma pharmacokinetics, single doses; assay type: in vivo, human; conditions: for Cmax / AUC(0-t) / Tmax: human, oral; for Cmax / AUC(0-t): geometric mean; for AUC(0-t): read-out: AUC0-24; for Tmax: plasma
Experimental: Treatments were administered under fasted state. Dose levels were as follows:
Subjects were randomized to 1 of 4 sequences.
Blood samples (up to 5 mL per sample) were collected for PK analysis of Compound A and its metabolite(s). The actual time of sample collection was recorded. The PK samples of the subjects randomized to placebo treatment were not analyzed. Any remaining plasma PK samples were used to explore the presence of any additional metabolites and/or biomarkers.
Plasma and urine concentrations of Compound A and its metabolite(s) were measured using a validated high-performance liquid chromatography with tandem mass spectrometry.
The PK population was used for summaries of plasma Compound A and its metabolite(s) concentrations and for analyses, summaries, and listing of PK parameters. Dose proportionality for Cmax, AUC0-t, and AUC0-∞ was evaluated using a linear model of logarithmically transformed values to assess the slope parameter, and the 95% CI for the slope was estimated. Where a 95% CI of the slope includes 1, it was considered as evidence of dose proportionality for that PK parameter.

## CS(=O)(=O)N[C@H]1CCCN2C(=O)COc3ccccc3C3CCC(CC3)OCC12 (stereo partly drawn) [Compound A, N-[(4S,4aR,7α,10α)-1,2,3,4,4a,5,7,8,9,10,16,17-dodecahydro-17-oxo-7,10-ethanopyrido[1,2-d][1,7,4]benzodioxaazacyclotridecin-4-yl]methanesulfonamide]
[1]; 5 mg
  Change From Day −1 in Average Karolinska Sleepiness Scale, LSM difference vs placebo: −0.31
  Change From Day −1 in Average Karolinska Sleepiness Scale, LSM: −0.68
[1]; 12 mg
  Change From Day −1 in Average Karolinska Sleepiness Scale, LSM difference vs placebo: −0.60
  Change From Day −1 in Average Karolinska Sleepiness Scale, LSM: −0.97
[1]; 25 mg
  Change From Day −1 in Average Karolinska Sleepiness Scale, LSM difference vs placebo: −1.42
  Change From Day −1 in Average Karolinska Sleepiness Scale, LSM: −1.78
[1]; NT2, 5 mg
  LS mean difference vs placebo in change from Day −1, average KSS: −0.31
[1]; NT2, 12 mg
  LS mean difference vs placebo in change from Day −1, average KSS: −0.60
[1]; NT2, 25 mg
  LS mean difference vs placebo in change from Day −1, average KSS: −1.42
[2]; NT2 patients, 5 to 25 mg
  fold change in AUC and Cmax for 5-fold change in dose: approximately 3 fold
[2]; 5 mg, NT2, plasma, n = 8
  Cmax: 13.4 ng/mL
  AUC(0-t): 78.1 ng·h/mL
[2]; 12 mg, NT2, plasma, n = 8
  Cmax: 24 ng/mL
  AUC(0-t): 185 ng·h/mL
[2]; 25 mg, NT2, plasma, N = 9
  Cmax: 38 ng/mL
  AUC(0-t): 231 ng·h/mL
[2]; 5 mg, NT2, plasma, median, n = 8, read-out: Tmax
  Tmax: 1.75 h
[2]; 12 mg, NT2, plasma, median, n = 8, read-out: Tmax
  Tmax: 2 h
[2]; 25 mg, NT2, plasma, median, N = 9, read-out: Tmax
  Tmax: 3 h
[2]; 25 mg, NT2 patients, 5, 12, 25 mg, read-out: median tmax, range across doses
  Tmax: 1.75 to 3 h
